Reference: patent publication US20240279218A1 (Hoffmann-La Roche Inc., priority 2016, published 2024)

Key:
h-GABA-A α5β3γ2 [1] = target: T1, h-GABA-A α5β3γ2 (Homo sapiens (Human), UniProt P18507+P31644); experiment: Two-electrode voltage clamp electrophysiology in Xenopus oocytes expressing GABAA receptors, modulation of GABA EC20 current; assay type: cell-based; details: for Efficacy (GABA) %: % modulation of GABA EC20 = 100*(Fold increase−1); for Efficacy (GABA) % / Fold increase h-GABA-A α5β3γ2 oocyte: Xenopus oocytes; for Fold increase h-GABA-A α5β3γ2 oocyte: GABA EC20, test compound at approx. 30 fold its Ki
Procedure: Xenopus laevis oocytes at maturation stages V-VI were used for the expression of cloned mRNA encoding GABAA receptor subunits. Oocytes ready for RNA micro-injection were bought from Ecocyte, Castrop-Rauxel, Germany and stored in modified Barth's medium (composition in mM: NaCl 88, KCl 1, NaHCO32.4, HEPES 10, MgSO4 0.82, CaNO3 0.33, CaCl2) 0.33, pH=7.5) at 20° C. until the experiment.
Oocytes were plated in 96-well plates to be used in an automated instrument (Robo-ocyte, MultiChannelSystems, Reutlingen, Germany) for microinjection and electrophysiological recordings. Approximately 50 nl of an aqueous solution containing the RNA transcripts for the subunits of the desired GABAA receptor was injected into each oocyte. RNA concentrations ranged between 0.3 and 16 ng/μl/subunit and were adjusted in pilot experiments to obtain GABA responses of a suitable size and a maximal effect of the reference modulator, Beta-CCM (β-CCM), a betacarboline negative allosteric modulator (NAM) at the GABAA receptor benzodiazepine (BZD) binding site or Midazolam, a benzodiazepine positive allosteric modulator (PAM) at the GABAA receptor benzodiazepine (BZD) binding site. The concentration of the γ2 subunit encoding RNA usually was 5-to 10-fold higher than the RNAs encoding the other subunits. Oocytes were kept in modified Barth's medium (composition in mM: NaCl 88, KCl 1, NaHCO3 4, HEPES 10, MgSO4 0.82, CaNO3 0.33, CaCl2 0.33, pH=7.5) at 20° C. until the experiment.
Electrophysiological experiments were performed on days 3 to 5 after the micro-injection of mRNA. During the experiment the oocytes were constantly superfused by a solution containing (in mM) NaCl 90, KCl 1, HEPES 5, MgCl2 1, CaCl2 1 (pH 7.4). Oocytes were impaled by two glass microelectrodes (resistance: 0.4 MΩ) which were filled with a solution containing KCl 1M+K-acetate 1.5 M and voltage-clamped to −80 mV. The recordings were performed at room temperature using the Roboocyte two-electrode voltage clamp system (Multichannelsystem). After an initial equilibration period of 1.5 min GABA was added for 1.5 min at a concentration evoking approximately 20% of a maximal current response (EC20). After another rest interval of 2.5 min GABA was again added evoking a response of similar amplitude and shape. […] Current traces were recorded at a digitization rate of 10 Hz during and shortly before and after the GABA application.
Each compound and concentration was tested on at least 3 oocytes.
For the analysis, the digitized current traces of the first and second GABA response were superimposed and, if necessary, rescaled to equal maximal amplitudes. The ratio between the two responses during the time interval of test compound application was calculated point by point. The extremum of the resulting “ratio trace” was taken as the efficacy (“Fold increase”) of the compound expressed as “% modulation of GABA EC20” (100*(Fold increase−1)).

h-GABA-A α5β3γ2 [2] = target: T1, h-GABA-A α5β3γ2; experiment: [3H]flumazenil competition binding assay, membranes of HEK293 cells expressing human GABAA receptors; details: displacement of [3H]flumazenil 0.5 nM, HEK293 cells expressing human receptors, mean of two determinations; read-out: Ki h-GABA-A α5β3γ2
Procedure: The affinity of compounds at GABAA receptor subtypes was measured by competition for [3H]flumazenil (85 Ci/mmol; Roche) binding to HEK293 cells expressing rat (stably transfected) or human (transiently transfected) receptors of composition α1β3γ2, α2β3γ2, α3β3γ2 and α5β3γ2.
Cell pellets were suspended in Krebs-tris buffer (4.8 mM KCl, 1.2 mM CaCl2, 1.2 mM MgCl2, 120 mM NaCl, 15 mM Tris; pH 7.5; binding assay buffer), homogenized by polytron for ca. 20 sec on ice and centrifuged for 60 min at 4° C. (50000 g; Sorvall, rotor: SM24=20000 rpm). The cell pellets were resuspended in Krebs-tris buffer and homogenized by polytron for ca. 15 sec on ice. Protein was measured (Bradford method, Bio-Rad) and aliquots of 1 mL were prepared and stored at −80° C.
Assays were incubated to equilibrium for 1 hour at 4° C. and harvested onto GF/C uni-filters (Packard) by filtration using a Packard harvester and washing with ice-cold wash buffer (50 mM Tris; pH 7.5). After drying, filter-retained radioactivity was detected by liquid scintillation counting. Ki values were calculated using Excel-Fit (Microsoft) and are the means of two determinations.

[3] = positive control, maximally effective concentration, 3-6 oocytes per plate

| SMILES | Efficacy (GABA) % (h-GABA-A α5β3γ2 [1]) | Fold increase h-GABA-A α5β3γ2 oocyte (h-GABA-A α5β3γ2 [1]) | Ki (h-GABA-A α5β3γ2 [2]) | Fold increase (h-GABA-A α5β3γ2 [1]; [3]) | potentiation of the GABA-induced current (h-GABA-A α5β3γ2 [1]; [3]) | inhibition of the GABA-evoked current (h-GABA-A α5β3γ2 [1]; [3]) |
| --- | --- | --- | --- | --- | --- | --- |
| Cc1ccc(-c2noc(C)c2COc2ccc(C(=O)NC(C)C(F)(F)F)nn2)cn1 (racemic) [Example 34, (RS)-6-((5-methyl-3-(6-methylpyridin-3-yl)isoxazol-4-yl)methoxy)-N-(1,1,1-trifluoropropan-2-yl)pyridazine-3-carboxamide] | 84% | 1.84 | – | – | – | – |
| Cc1ccc(-c2noc(C)c2COc2ccc(C(=O)NC3CCS(=O)(=O)C3)nn2)cn1 (racemic) [Example 36, (RS)—N-(1,1-dioxothiolan-3-yl)-6-((5-methyl-3-(6-methylpyridin-3-yl)-1,2-oxazol-4-yl)methoxy)pyridazine-3-carboxamide] | 65% | 1.65 | – | – | – | – |
| Cc1ccc(-c2noc(C)c2COc2ccc(C(=O)NC3CCOC3)nn2)cn1 (racemic) [Example 45, (RS)-6-((5-methyl-3-(6-methylpyridin-3-yl)isoxazol-4-yl)methoxy)-N-(tetrahydrofuran-3-yl)pyridazine-3-carboxamide] | 84% | 1.84 | – | – | – | – |
| Cc1ccc(-c2noc(C)c2COc2ccc(C(=O)NC3CCOC(C)(C)C3)nn2)cn1 (racemic) [Example 58, (RS)—N-(2,2-dimethyltetrahydropyran-4-yl)-6-((5-methyl-3-(6-methylpyridin-3-yl)isoxazol-4-yl)methoxy)pyridazine-3-carboxamide] | 71% | 1.71 | – | – | – | – |
| Cc1ccc(-c2noc(C)c2COc2ccc(C(=O)NC3(C)CCOC3)nn2)cn1 (racemic) [Example 75] | 89% | 1.89 | – | – | – | – |
| Cc1ccc(-c2noc(C)c2COc2ccc(C(=O)N[C@@H]3CC[C@@H](O)C3)nn2)cn1 (racemic) [Example 152, N-((1RS,3RS)-3-hydroxycyclopentyl)-6-((5-methyl-3-(6-methylpyridin-3-yl)isoxazol-4-yl)methoxy)pyridazine-3-carboxamide] | 85% | 1.85 | – | – | – | – |
| CO[C@@H]1CC[C@@H](NC(=O)c2ccc(OCc3c(-c4ccc(C)nc4)noc3C)nn2)C1 (racemic) [Example 166, trans-N-((1RS,3RS)-3-methoxycyclopentyl)-6-((5-methyl-3-(6-methylpyridin-3-yl)isoxazol-4-yl)methoxy)pyridazine-3-carboxamide] | 70% | 1.7 | – | – | – | – |
| Cc1ccc(-c2noc(C)c2COc2ccc(C(=O)NC3CCCOCC3)nn2)cn1 (racemic) [Example 187, (RS)-6-((5-methyl-3-(6-methylpyridin-3-yl)isoxazol-4-yl)methoxy)-N-(oxepan-4-yl)pyridazine-3-carboxamide] | 88% | 1.88 | – | – | – | – |
| Cc1ccc(-c2noc(C)c2COc2ccc(C(=O)N[C@@]3(C)CCOC3)nn2)cn1 (single isomer, unassigned) [Example 81] | 80% | 1.8 | 10.4 nM | – | – | – |
| Cc1ccc(-c2noc(C)c2COc2ccc(C(=O)N[C@]3(C)CCOC3)nn2)cn1 (single isomer, unassigned) [Example 82] | 101% | 2.01 | 12.4 nM | – | – | – |
| Cc1ccc(-c2noc(C)c2COc2ccc(C(=O)N[C@@H]3CC[C@@](O)(C(F)(F)F)C3)nn2)cn1 (single isomer, unassigned) [Example 149] | 37% | 1.37 | 5 nM | – | – | – |
| Cc1ccc(-c2noc(C)c2COc2ccc(C(=O)N[C@H]3CC[C@](O)(C(F)(F)F)C3)nn2)cn1 (single isomer, unassigned) [Example 150] | 69% | 1.69 | 16.7 nM | – | – | – |
| Cc1ccc(-c2noc(C)c2COc2ccc(C(=O)N[C@H]3C[C@H]4CC[C@H]3O4)nn2)cn1 (single isomer, unassigned) [Example 188] | 71% | 1.71 | 20.7 nM | – | – | – |
| Cc1ccc(-c2noc(C)c2COc2ccc(C(=O)N[C@@H]3C[C@@H]4CC[C@@H]3O4)nn2)cn1 (single isomer, unassigned) [Example 189] | 86% | 1.86 | 18.8 nM | – | – | – |
| Cc1ccc(-c2noc(C)c2COc2cnc(C(=O)NC3CCOC3)cn2)cn1 (stereo in doubt) [Example 92, (S)-5-((5-Methyl-3-(6-methylpyridin-3-yl)isoxazol-4-yl)methoxy)-N-(tetrahydrofuran-3-yl)pyrazine-2-carboxamide] | 67% | 1.67 | 13.2 nM | – | – | – |
| Cc1ccc(-c2noc(C)c2COc2ccc(C(=O)NC3CCOCC3)cn2)cn1 [Example 1, 6-((5-methyl-3-(6-methyl-3-pyridyl)isoxazol-4-yl)methoxy)-N-tetrahydropyran-4-yl-pyridine-3-carboxamide] | 42% | 1.42 | 4.8 nM | – | – | – |
| Cc1ccc(-c2nocc2COc2ccc(C(=O)NC3CCOCC3)cn2)cn1 [Example 44, 6-((3-(6-methyl-3-pyridyl)isoxazol-4-yl)methoxy)-N-tetrahydropyran-4-yl-pyridine-3-carboxamide] | 54% | – | – | – | – | – |
| Cc1ccc(-c2noc(C)c2COc2ccc(C(=O)NC(C)(C)CCS(C)(=O)=O)nn2)cn1 [Example 80, 6-((5-methyl-3-(6-methylpyridin-3-yl)isoxazol-4-yl)methoxy)-N-(2-methyl-4-(methylsulfonyl)butan-2-yl)pyridazine-3-carboxamide] | 108% | 2.08 | – | – | – | – |
| Cc1ccc(-c2noc(C)c2COc2ccc(C(=O)N3C[C@@H]4C[C@H]3CO4)nn2)cn1 [Example 151, (1S,4S)-2-oxa-5-azabicyclo[2.2.1]heptan-5-yl(6-((5-methyl-3-(6-methylpyridin-3-yl)isoxazol-4-yl)methoxy)pyridazin-3-yl)methanone] | 68% | – | – | – | – | – |
| Cc1onc(-c2ccc(Cl)nc2)c1COc1ccc(C(=O)N[C@H]2CCOC2)nn1 [Example 160, (S)-6-((3-(6-chloropyridin-3-yl)-5-methylisoxazol-4-yl)methoxy)-N-(tetrahydrofuran-3-yl)pyridazine-3-carboxamide] | 42% | – | – | – | – | – |
| O=C(N[C@H]1CCOC1)c1ccc(OCc2c(-c3ccc(Cl)nc3)noc2C2CC2)nn1 [Example 179, (S)-6-((3-(6-chloropyridin-3-yl)-5-cyclopropylisoxazol-4-yl)methoxy)-N-(tetrahydrofuran-3-yl)pyridazine-3-carboxamide] | 82% | – | – | – | – | – |
| Cc1ncc2n1-c1ccc(Cl)cc1C(c1ccccc1F)=NC2 [Midazolam, reference compound] | – | – | – | ~2.5 | ~150% | – |
| COC(=O)c1cc2c(cn1)[nH]c1ccccc12 [β-CCM, Beta-CCM, reference compound] | – | – | – | ~0.5 | – | ~50% |
